{
  "source": "paper PMC4746629",
  "about": "“Small-molecule inhibition of PTPRZ reduces tumor growth in a rat model of glioblastoma” (Scientific Reports, 2016)",
  "key": {"[1]": {"assay": "Parallel artificial membrane permeability assay (PAMPA)", "type": "in vitro ADME"}, "[2]": {"assay": "Stability of SCB4380 in C6 cells, time-lapse microscopy after microinjection", "type": "cell-based, rat", "details": "rat; after direct microinjection, time-lapse microscopy; read-out: Average half-life for disappearance of the fluorescent signal in C6 cells"}, "C6 cells": {"system": "C6 cells", "assay": "Stability of SCB4380 in C6 cells, time-lapse microscopy after microinjection", "type": "cell-based, rat"}, "PTPRZ-ICR [3]": {"biological_target": "T1, PTPRZ-ICR (Homo sapiens, UniProt P23471, DEL1723-1729)", "T1 sequence (P23471 1698-2308 isoform P23471-2 limits assumed, stated change not applied)": "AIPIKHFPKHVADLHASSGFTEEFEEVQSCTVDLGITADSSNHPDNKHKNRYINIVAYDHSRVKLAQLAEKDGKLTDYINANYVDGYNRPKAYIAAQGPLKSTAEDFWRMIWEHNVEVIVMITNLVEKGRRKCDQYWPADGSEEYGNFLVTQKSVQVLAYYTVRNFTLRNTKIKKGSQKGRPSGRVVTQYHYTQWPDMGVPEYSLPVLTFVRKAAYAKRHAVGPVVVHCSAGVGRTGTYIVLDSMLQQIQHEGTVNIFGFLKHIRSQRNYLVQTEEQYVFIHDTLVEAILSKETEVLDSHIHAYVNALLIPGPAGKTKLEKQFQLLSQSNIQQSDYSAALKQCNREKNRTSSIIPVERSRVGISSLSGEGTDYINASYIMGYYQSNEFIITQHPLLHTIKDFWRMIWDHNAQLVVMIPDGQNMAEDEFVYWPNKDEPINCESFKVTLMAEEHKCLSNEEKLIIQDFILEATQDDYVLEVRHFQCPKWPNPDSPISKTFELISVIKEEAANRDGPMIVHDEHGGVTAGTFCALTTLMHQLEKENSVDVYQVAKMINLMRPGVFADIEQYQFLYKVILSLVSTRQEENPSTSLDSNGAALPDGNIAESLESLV", "assay": "Isothermal titration calorimetry"}, "PTPRZ": {"biological_target": "PTPRZ (Homo sapiens, UniProt P23471, DEL1723-1729)", "sequence (P23471 1698-2308 isoform P23471-2 limits assumed, stated change not applied)": "as above", "assay": "PTP selectivity assay with DiFMUP substrate"}, "human PTPRG": {"biological_target": "human PTPRG (Homo sapiens, UniProt P23470)", "sequence (P23470 790-1445)": "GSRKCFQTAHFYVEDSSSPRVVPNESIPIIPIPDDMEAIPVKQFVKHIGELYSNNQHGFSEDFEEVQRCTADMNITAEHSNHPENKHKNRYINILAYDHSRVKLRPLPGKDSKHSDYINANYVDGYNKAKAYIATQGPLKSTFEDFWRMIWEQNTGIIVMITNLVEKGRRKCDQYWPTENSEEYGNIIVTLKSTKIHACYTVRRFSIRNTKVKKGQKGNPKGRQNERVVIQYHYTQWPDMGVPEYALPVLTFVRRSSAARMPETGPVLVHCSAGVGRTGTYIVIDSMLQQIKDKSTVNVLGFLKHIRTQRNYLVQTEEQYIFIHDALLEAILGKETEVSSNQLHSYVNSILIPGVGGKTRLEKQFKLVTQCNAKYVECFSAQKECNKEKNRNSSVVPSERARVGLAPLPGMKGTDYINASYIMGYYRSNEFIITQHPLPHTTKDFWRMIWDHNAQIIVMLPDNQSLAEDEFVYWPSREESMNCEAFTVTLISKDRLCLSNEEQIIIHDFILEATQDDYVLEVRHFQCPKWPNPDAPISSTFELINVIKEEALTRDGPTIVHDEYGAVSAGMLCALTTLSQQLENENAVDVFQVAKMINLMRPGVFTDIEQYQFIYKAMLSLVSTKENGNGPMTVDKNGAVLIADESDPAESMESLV", "assay": "PTP selectivity assay with DiFMUP substrate"}, "human PTPRA": {"biological_target": "human PTPRA (Homo sapiens, UniProt P18433)", "assay": "PTP selectivity assay with DiFMUP substrate"}, "human PTPRM": {"biological_target": "human PTPRM (Homo sapiens, UniProt P28827)", "sequence (P28827 765-1452)": "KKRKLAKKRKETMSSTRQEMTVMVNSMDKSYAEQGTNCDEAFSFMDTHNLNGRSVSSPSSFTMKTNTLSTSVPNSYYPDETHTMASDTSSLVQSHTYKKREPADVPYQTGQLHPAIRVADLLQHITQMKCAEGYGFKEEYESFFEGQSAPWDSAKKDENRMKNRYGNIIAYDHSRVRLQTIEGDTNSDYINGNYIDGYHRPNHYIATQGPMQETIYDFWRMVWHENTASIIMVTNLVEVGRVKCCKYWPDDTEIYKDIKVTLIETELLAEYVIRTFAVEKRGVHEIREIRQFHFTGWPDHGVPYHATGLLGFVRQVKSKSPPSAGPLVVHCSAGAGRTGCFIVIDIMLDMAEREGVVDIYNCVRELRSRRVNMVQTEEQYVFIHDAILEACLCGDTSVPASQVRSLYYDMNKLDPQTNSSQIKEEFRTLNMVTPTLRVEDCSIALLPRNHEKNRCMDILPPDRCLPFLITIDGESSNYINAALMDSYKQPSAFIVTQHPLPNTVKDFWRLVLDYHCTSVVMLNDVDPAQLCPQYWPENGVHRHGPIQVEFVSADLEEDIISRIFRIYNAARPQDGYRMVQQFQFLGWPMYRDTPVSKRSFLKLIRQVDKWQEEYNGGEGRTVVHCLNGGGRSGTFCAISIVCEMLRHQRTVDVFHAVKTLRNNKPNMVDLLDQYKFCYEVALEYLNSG", "assay": "PTP selectivity assay with DiFMUP substrate"}, "human PTPRS": {"biological_target": "T2, human PTPRS (Homo sapiens, UniProt Q13332)", "T2 sequence (Q13332 1304-1948)": "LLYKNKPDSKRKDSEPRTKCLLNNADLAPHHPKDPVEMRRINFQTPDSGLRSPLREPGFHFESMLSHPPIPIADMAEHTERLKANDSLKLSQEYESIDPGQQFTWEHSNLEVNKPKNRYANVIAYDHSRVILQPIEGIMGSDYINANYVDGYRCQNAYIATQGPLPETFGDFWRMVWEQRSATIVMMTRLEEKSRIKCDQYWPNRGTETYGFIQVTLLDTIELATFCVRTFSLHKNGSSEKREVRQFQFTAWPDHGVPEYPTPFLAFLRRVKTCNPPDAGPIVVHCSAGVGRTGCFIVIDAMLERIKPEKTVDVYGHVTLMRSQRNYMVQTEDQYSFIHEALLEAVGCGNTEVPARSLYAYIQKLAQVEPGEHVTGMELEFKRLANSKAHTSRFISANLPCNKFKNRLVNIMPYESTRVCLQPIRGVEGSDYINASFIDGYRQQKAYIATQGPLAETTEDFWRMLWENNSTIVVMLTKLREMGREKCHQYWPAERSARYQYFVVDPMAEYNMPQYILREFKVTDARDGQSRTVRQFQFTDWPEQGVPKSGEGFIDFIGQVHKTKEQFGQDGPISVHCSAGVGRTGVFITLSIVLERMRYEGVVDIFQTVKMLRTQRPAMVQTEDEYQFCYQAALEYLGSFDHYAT", "assay": "PTP selectivity assay with DiFMUP substrate"}, "mouse PTPRB": {"biological_target": "mouse PTPRB (Mus musculus, UniProt B2RU80)", "sequence (B2RU80 1644-1997 limits assumed)": "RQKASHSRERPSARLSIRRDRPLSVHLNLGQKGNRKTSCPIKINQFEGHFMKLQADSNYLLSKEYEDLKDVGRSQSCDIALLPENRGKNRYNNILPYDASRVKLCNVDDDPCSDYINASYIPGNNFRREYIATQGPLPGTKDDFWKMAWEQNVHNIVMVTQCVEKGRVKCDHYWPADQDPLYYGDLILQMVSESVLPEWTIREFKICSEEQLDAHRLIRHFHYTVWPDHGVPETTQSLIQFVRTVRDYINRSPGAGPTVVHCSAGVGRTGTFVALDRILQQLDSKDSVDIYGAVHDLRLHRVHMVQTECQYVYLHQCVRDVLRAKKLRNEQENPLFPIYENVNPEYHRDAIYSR", "assay": "PTP selectivity assay with DiFMUP substrate"}, "human PTPN6": {"biological_target": "T3, human PTPN6 (Homo sapiens, UniProt P29350)", "T3 sequence (P29350 220-523)": "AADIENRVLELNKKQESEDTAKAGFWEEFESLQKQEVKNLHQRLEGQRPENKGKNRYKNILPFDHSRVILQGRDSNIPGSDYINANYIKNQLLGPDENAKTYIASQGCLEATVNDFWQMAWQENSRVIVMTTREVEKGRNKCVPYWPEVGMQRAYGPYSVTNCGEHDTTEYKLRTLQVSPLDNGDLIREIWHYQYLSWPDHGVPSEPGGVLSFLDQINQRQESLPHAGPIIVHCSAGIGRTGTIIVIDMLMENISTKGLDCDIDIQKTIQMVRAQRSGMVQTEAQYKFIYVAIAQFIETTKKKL", "assay": "PTP selectivity assay with DiFMUP substrate"}, "human PTPN1": {"biological_target": "T4, human PTPN1 (Homo sapiens, UniProt P18031)", "T4 sequence (P18031 1-321)": "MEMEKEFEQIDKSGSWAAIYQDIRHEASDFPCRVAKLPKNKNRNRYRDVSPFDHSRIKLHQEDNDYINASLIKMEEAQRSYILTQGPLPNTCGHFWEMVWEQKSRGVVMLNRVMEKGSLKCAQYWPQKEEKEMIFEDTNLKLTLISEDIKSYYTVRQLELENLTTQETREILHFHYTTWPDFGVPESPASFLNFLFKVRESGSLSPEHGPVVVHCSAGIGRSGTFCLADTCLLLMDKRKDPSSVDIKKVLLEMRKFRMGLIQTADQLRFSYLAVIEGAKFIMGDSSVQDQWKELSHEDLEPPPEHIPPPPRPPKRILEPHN", "assay": "PTP selectivity assay with DiFMUP substrate"}, "PTPRZ-ICR N1758D mutant": {"biological_target": "PTPRZ-ICR N1758D mutant (Homo sapiens, UniProt P23471, DEL1723-1729/N1758D)", "sequence (P23471 1698-2308 isoform P23471-2 N1751D limits assumed)": "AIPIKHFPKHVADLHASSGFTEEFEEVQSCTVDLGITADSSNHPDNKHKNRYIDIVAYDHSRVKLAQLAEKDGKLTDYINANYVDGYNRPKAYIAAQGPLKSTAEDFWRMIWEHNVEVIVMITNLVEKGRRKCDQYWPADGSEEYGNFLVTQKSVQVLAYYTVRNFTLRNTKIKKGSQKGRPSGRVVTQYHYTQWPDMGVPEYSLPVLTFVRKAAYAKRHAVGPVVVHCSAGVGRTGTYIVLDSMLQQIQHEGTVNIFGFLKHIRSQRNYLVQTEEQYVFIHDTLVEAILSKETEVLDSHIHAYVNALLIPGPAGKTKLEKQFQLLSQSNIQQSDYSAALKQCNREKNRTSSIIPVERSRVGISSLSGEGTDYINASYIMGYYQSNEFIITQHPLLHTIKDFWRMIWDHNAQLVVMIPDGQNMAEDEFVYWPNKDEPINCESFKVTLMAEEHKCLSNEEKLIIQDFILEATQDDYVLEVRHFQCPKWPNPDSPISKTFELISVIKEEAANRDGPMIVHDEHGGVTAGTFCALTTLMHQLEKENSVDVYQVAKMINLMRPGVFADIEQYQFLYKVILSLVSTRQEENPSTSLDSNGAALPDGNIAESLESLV", "assay": "Inhibitor sensitivity of site-directed mutant, pCAP assay", "details": "compounds 10 μM, 20 μM pCAP-GIT1_549–556"}, "PTPRZ-ICR Y1756F mutant": {"biological_target": "PTPRZ-ICR Y1756F mutant (Homo sapiens, UniProt P23471, DEL1723-1729/Y1756F)", "sequence (P23471 1698-2308 isoform P23471-2 Y1749F limits assumed)": "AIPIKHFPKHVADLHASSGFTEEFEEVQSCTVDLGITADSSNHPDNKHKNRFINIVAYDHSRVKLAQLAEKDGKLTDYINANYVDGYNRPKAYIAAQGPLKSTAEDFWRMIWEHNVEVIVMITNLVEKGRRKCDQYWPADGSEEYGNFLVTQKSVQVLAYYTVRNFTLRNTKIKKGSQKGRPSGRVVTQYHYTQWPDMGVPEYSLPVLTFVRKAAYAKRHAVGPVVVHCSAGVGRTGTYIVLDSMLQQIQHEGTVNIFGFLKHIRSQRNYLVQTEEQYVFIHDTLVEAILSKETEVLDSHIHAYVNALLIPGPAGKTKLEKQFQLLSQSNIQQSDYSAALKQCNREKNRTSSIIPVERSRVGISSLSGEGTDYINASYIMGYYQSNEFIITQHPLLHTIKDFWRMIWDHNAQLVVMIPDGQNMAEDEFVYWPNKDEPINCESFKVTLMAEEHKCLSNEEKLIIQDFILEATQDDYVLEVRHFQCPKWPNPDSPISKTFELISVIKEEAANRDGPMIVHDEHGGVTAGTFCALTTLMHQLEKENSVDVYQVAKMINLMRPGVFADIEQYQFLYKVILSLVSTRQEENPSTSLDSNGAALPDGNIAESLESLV", "assay": "Inhibitor sensitivity of site-directed mutant, pCAP assay", "details": "compounds 10 μM or vanadate 200 μM, 20 μM pCAP-GIT1_549–556"}, "PTPRZ-ICR [4]": {"biological_target": "T1, PTPRZ-ICR", "assay": "Mass spectrometry under non-denaturing conditions (native MS) binding"}, "PTPRZ-ICR [5]": {"biological_target": "T1, PTPRZ-ICR", "assay": "Hydrolysis of pCAP-GIT1_549–556 by human PTPRZ-ICR, IC50 and kinetic analysis"}, "PTPRZ-ICR [6]": {"biological_target": "T1, PTPRZ-ICR", "assay": "In vitro dephosphorylation assay, single concentration of SCB4380 analogues", "type": "biochemical", "parameters": "PTPRZ (ICR, amino acid residues 1698-2315); FLAG (followed by HRV 3C site) (N, cleaved yes); made in house; host or cells: silkworm (Bombyx mori) pupae, BmNPV baculovirus", "details": "compound 10 μM, substrate 20 μM, human PTPRZ-ICR 0.1 nM", "source_text": "No significant effects were detected with compounds 7 to 10. TEXT PRINTED IN THE PICTURE: (B) 7: (no inhibition) | (B) 8: (no inhibition) | (B) 9: (no inhibition) | (B) 10: (no inhibition)"}, "C6 glioblastoma cells": {"system": "C6 glioblastoma cells", "assay": "Cell proliferation assay", "type": "cell-based, rat", "details": "parent C6 cells, liposome delivery"}},
  "note": "“Also recorded” adds a separate entry of the source.",
  "data": [
    {"compound": "O=S(=O)([O-])c1ccc2c(N=Nc3ccc(S(=O)(=O)[O-])c4ccccc34)c(O)c(S(=O)(=O)[O-])cc2c1.[Na+].[Na+].[Na+]", "note": "[SCB4380, trisodium 3-hydroxy-4-[(4-sulfonato-1-naphthyl)diazenyl]-2,7-naphthalenedisulfonate]", "values": [
      {"measurement": "Membrane permeability", "setting": "[1]", "result": "deficient and low"},
      {"measurement": "half-life", "setting": "[2]", "result": "~50", "unit": "min"},
      {"measurement": "Stability in living cells", "setting": "C6 cells", "result": "substantial instability"},
      {"measurement": "Kd", "setting": "PTPRZ-ICR [3]", "result": 1.23, "unit": "µM"},
      {"measurement": "ΔH (enthalpy change, ITC)", "setting": "PTPRZ-ICR [3]; 298.15 K, pH 7.5", "result": -14, "unit": "kcal/mol"},
      {"measurement": "IC50", "setting": "PTPRZ", "result": 0.4, "unit": "µM"},
      {"measurement": "IC50", "setting": "human PTPRG", "result": 0.4, "unit": "µM"},
      {"measurement": "IC50", "setting": "human PTPRA", "result": 75.7, "unit": "µM"},
      {"measurement": "IC50", "setting": "human PTPRM", "result": 60.7, "unit": "µM"},
      {"measurement": "IC50", "setting": "human PTPRS", "result": 14.8, "unit": "µM"},
      {"measurement": "IC50", "setting": "mouse PTPRB", "result": 73.8, "unit": "µM"},
      {"measurement": "IC50", "setting": "human PTPN6", "result": 24.6, "unit": "µM"},
      {"measurement": "IC50", "setting": "human PTPN1", "result": 19.5, "unit": "µM"},
      {"measurement": "Inhibitor sensitivity of N1758D mutant versus wild-type enzyme", "setting": "PTPRZ-ICR N1758D mutant", "result": "resistant to inhibition"},
      {"measurement": "Inhibitor sensitivity of Y1756F mutant versus wild-type enzyme", "setting": "PTPRZ-ICR Y1756F mutant", "result": "impaired the inhibition by SCB4380 markedly"},
      {"measurement": "Binding to PTPRZ-ICR by native MS", "setting": "PTPRZ-ICR [4]", "result": "bound to Z-ICR in a one-to-one stoichiometry"},
      {"measurement": "IC50", "setting": "PTPRZ-ICR [5]", "result": 0.4, "unit": "µM"},
      {"measurement": "Inhibition type by Lineweaver-Burk plot analysis", "setting": "PTPRZ-ICR [5]; human PTPRZ-ICR, pCAP-peptide substrate", "result": "competitive"}
    ]},
    {"compound": "O=S(=O)([O-])c1ccc2cc(O)c(S(=O)(=O)[O-])cc2c1.[Na+].[Na+]", "note": "[compound 8, disodium 3-hydroxy-2,7-naphthalenedisulfonate]", "values": [
      {"measurement": "Inhibitory effect on hydrolysis of pCAP-GIT1_549–556 (residual enzymatic activity relative to DMSO control)", "setting": "PTPRZ-ICR [6]", "result": "no inhibition"}
    ]},
    {"compound": "O=S(=O)(O)c1cccc2ccccc12", "note": "[compound 10, sodium 1-naphthalenesulfonate]", "values": [
      {"measurement": "Inhibitory effect on hydrolysis of pCAP-GIT1_549–556 (residual enzymatic activity relative to DMSO control)", "setting": "PTPRZ-ICR [6]", "result": "no inhibition"}
    ]},
    {"compound": "O=S(=O)([O-])c1ccc(N=Nc2c(O)ccc3ccccc23)c2ccccc12.[Na+]", "note": "[compound 4, sodium 4-(2-hydroxy-1-naphthalenylazo)-1-naphthalenesulfonate]", "values": [
      {"measurement": "Inhibitor sensitivity of N1758D mutant versus wild-type enzyme", "setting": "PTPRZ-ICR N1758D mutant", "result": "no changes in sensitivity"}
    ]},
    {"compound": "O=Nc1c(O)c(S(=O)(=O)O)cc2cc(S(=O)(=O)O)ccc12", "note": "[compound 7, disodium 1-nitroso-2-naphthol-3,6-disulfonate monohydrate]", "values": [
      {"measurement": "Inhibitory effect on hydrolysis of pCAP-GIT1_549–556 (residual enzymatic activity relative to DMSO control)", "setting": "PTPRZ-ICR [6]", "result": "no inhibition"}
    ]},
    {"compound": "O=[N+]([O-])c1ccc(N=Nc2c(O)c(S(=O)(=O)[O-])cc3cc(S(=O)(=O)[O-])ccc23)cc1.[Na+].[Na+]", "note": "[compound 6, sodium 3-hydroxy-4-[(4-nitrophenyl)diazenyl]-2,7-naphthalenedisulfonate]", "values": [
      {"measurement": "Inhibitory effect on hydrolysis of pCAP-GIT1_549–556 (residual enzymatic activity relative to DMSO control)", "setting": "PTPRZ-ICR [6]", "result": "markedly abolished inhibitory activity; also recorded: weakly inhibited"}
    ]},
    {"compound": "O=S(=O)([O-])c1ccc2c(N=Nc3ccc(S(=O)(=O)[O-])c4ccccc34)c(O)ccc2c1.[Na+].[Na+]", "note": "[compound 3, disodium 6-hydroxy-5-[(4-sulfonato-1-naphthyl)diazenyl]-2-naphthalene sulfonate]", "values": [
      {"measurement": "Inhibitor sensitivity of N1758D mutant versus wild-type enzyme", "setting": "PTPRZ-ICR N1758D mutant", "result": "no changes in sensitivity"},
      {"measurement": "Binding to PTPRZ-ICR by native MS", "setting": "PTPRZ-ICR [4]", "result": "no binding activity"}
    ]},
    {"compound": "O=S(=O)([O-])c1ccc2c(N=Nc3cccc4ccccc34)c(O)c(S(=O)(=O)[O-])cc2c1.[Na+].[Na+]", "note": "[compound 5, disodium 3-hydroxy-4-(1-naphthyldiazenyl)-2,7-naphthalenedisulfonate]", "values": [
      {"measurement": "Inhibitor sensitivity of N1758D mutant versus wild-type enzyme", "setting": "PTPRZ-ICR N1758D mutant", "result": "resistant to inhibition"},
      {"measurement": "Inhibitory effect on hydrolysis of pCAP-GIT1_549–556 (residual enzymatic activity relative to DMSO control)", "setting": "PTPRZ-ICR [6]", "result": "markedly abolished inhibitory activity"},
      {"measurement": "Inhibitory effect on hydrolysis of pCAP-GIT1_549–556 (residual enzymatic activity relative to DMSO control)", "setting": "PTPRZ-ICR [6]; listed as Compound 5", "result": "weakly inhibited"}
    ]},
    {"compound": "O=S(=O)([O-])c1cc(S(=O)(=O)[O-])c2c(N=Nc3ccc(S(=O)(=O)[O-])c4ccccc34)c(O)ccc2c1.[Na+].[Na+].[Na+]", "note": "[compound 2, trisodium 7-hydroxy-8-[(4-sulfonato-1-naphthyl)diazenyl]-1,3-naphthalenedisulfonate]", "values": [
      {"measurement": "Proliferation of C6 glioblastoma cells (increase in cell number in 24 h)", "setting": "C6 glioblastoma cells", "result": "did not show suppressive effects"},
      {"measurement": "Binding to PTPRZ-ICR by native MS", "setting": "PTPRZ-ICR [4]", "result": "no binding activity"},
      {"measurement": "Inhibitory effect on hydrolysis of pCAP-GIT1_549–556 (residual enzymatic activity relative to DMSO control)", "setting": "PTPRZ-ICR [6]", "result": "almost no inhibition"}
    ]},
    {"compound": "Nc1ccc(S(=O)(=O)O)c2ccccc12", "note": "[compound 9, 4-amino-1-naphthalenesulfonic acid]", "values": [
      {"measurement": "Inhibitory effect on hydrolysis of pCAP-GIT1_549–556 (residual enzymatic activity relative to DMSO control)", "setting": "PTPRZ-ICR [6]", "result": "no inhibition"}
    ]},
    {"compound": "[O]=[V]([O-])([O-])[O-]", "note": "[vanadate, reference compound]", "values": [
      {"measurement": "Inhibitor sensitivity of Y1756F mutant versus wild-type enzyme", "setting": "PTPRZ-ICR Y1756F mutant", "result": "not by vanadate"}
    ]}
  ]
}
